The values that follow come from patent US20210009583A1, “DEUTERATED IMIDAZOPYRIDINES” (UNIVERSITY OF NOTRE DAME DU LAC, priority 2018, published 2021).

“And” between values parts separate entries of the source, which are not always exact repeats. Equal values may be shown once. Read-outs that look alike come from different tables or passages of the source. Marks after values point to notes of the source that are not given here.

The subject of one data set is M. tuberculosis. In words: Chronic Balb/c mouse model of M. tuberculosis infection. Format: in vivo.
The nature of data set [1]: Body weight at gross necropsy after 4 weeks of treatment (chronic model). It is filed as in vivo, Balb/c mouse. To be noted: Group 8, INH, individual mice. The protocol:
When evaluated in the “Chronic Balb/c mouse model” of M. tuberculosis infection by the method of Lenaerts, A. J., et. al. 2005. Preclinical testing of the nitroimidazopyran PA-824 for activity against M. tuberculosis in a series of in vitro and in vivo models. AAC. 49(6):2294-301. ND-012101 at 200 mg/kg and ND-012101(100 mg/kg)+ABT (100 mg/kg) both achieved 100% mouse survival after 4 weeks of oral dosing.

Data set [2] is described as follows: Single dose pharmacokinetic study after oral administration, with and without ABT pre-dosing. It is filed as in vivo, female Balb/c mice. The protocol:
Based on MIC and acute toxicity data, two compounds ND-011176 and a deuterated analog ND-012101 were selected for evaluation in a single dose pharmacokinetic study (with and without pre-dosing of 1-Aminobenzotriazole, ABT) after oral administration to female Balb/c mice.
All animals were administered with the prepared test article via oral gavage at a target dose level of 200 mg/kg and at the dose volume detailed in the table 1 below. Each animal in Groups 2, 4, 6, 8 and 10 received a dose of ABT (100 mg/kg) via oral gavage two hours prior to Test Article administration.
Whole blood samples (0.1 mL each) were collected at the first time point via submandibular vein (SMV), or an appropriate peripheral vein if it was necessary. Up to 0.5 mL of whole blood was collected at terminal blood collection via intra cardiac puncture (ICP). For animals 1-3 from each of the 10 Groups, blood samples were collected at 0.5 and 4 hours after oral dosing. […]
The plasma samples and dose formulation samples were analyzed by the Testing Facility to determine the concentration of the test article using LC-MS/MS. PK parameters were estimated from the plasma concentration-time data by standard non-compartmental methods utilizing suitable analysis software.

The next data set has as its system TB infection. Conditions: cited from earlier work.
Where [3] appears, read: 5 h (mean of the "8" and "12" TP samples taken before euthanasia), PO 200 mg/kg + 100 mg/kg ABT.
Setting [4] is: female, Balb/c, mouse, in vivo, po, 200 mg/kg.
Setting [5] is: mouse, in vivo, female Balb/c mice, single oral dose 200 mg/kg, no ABT.

The Cmax is the maximum level reached in the sampled fluid or tissue. For orientation: AUC(0-inf) means total exposure, with the tail of the curve extrapolated. For orientation: Tmax means the time at which the peak concentration occurs. Usually half-life stands for how long it takes for the measured level to halve. Low values mean rapid decline, high ones slow decline. In general, AUC refers to concentration integrated over time.

For `NNC(=O)c1ccncc1` [INH, Isoniazid, reference compound], the “Spleen, gross necropsy observation” value in the data set with M. tuberculosis (Group 8, INH, after 4 weeks of treatment, individual mice) is “enlarged”. In the data set on M. tuberculosis (INH (25), 4 Week Treatment), the “Lung Log10 CFU ± SEM” value is listed as 4.06 ± 0.11 Log10 CFU and the “Spleen Log10 CFU ± SEM” value was 2.13 ± 0.12^a Log10 CFU. Also, the “Log reduction vs CTL (Lg)” value in the data set with M. tuberculosis (lung, INH (25), 4 Week Treatment) is listed as 1.73. Further, the “Log reduction vs CTL (Sp)” value in the data set on M. tuberculosis (spleen, INH (25), 4 Week Treatment) was 2.87. Also, the Weight in data set [1] was 19.6 and 20.2 and 20.1 and 19.9 and 19.2 and 20.8.

In the case of `Cc1ccc2nc(C)c(C(=O)NCc3ccc(C(F)(F)F)cc3)n2c1` [ND-011176], the “Drug plasma concentration, individual mice” value in data set [2] (0.5 h, PO 200 mg/kg + 100 mg/kg ABT) is 18100 ng/mL and 22600 ng/mL; in data set [2] (0.5 h, PO 200 mg/kg, no ABT, 200 mg/kg), 5140 ng/mL and 7170 ng/mL; in data set [2] (2 h, PO 200 mg/kg + 100 mg/kg ABT), 29300 ng/mL and 38200 ng/mL; in data set [2] (2 h, PO 200 mg/kg, no ABT, 200 mg/kg) it was 5280 ng/mL and 4450 ng/mL; in data set [2] (4 h, PO 200 mg/kg + 100 mg/kg ABT) it was 34700 ng/mL and 44900 ng/mL; in data set [2] (4 h, PO 200 mg/kg, no ABT, 200 mg/kg) it was 432 ng/mL and 507 ng/mL. The “Drug plasma concentration, individual mice” value was 39200^^ ng/mL and 41600^^ ng/mL and 44050^^ ng/mL in data set [2] (setting [3]); 110 ng/mL and 25 ng/mL and 88.2 ng/mL in data set [2] (8 h, PO 200 mg/kg, no ABT, 200 mg/kg); “BQL and 28.8 ng/mL” in data set [2] (12 h, PO 200 mg/kg, no ABT, 200 mg/kg); “BQL” in data set [2] (24 h, PO 200 mg/kg, no ABT, 200 mg/kg). In addition, in data set [2] (setting [3]), the “Drug plasma concentration, Average” value is given as 41617^^ ng/mL. In addition, in data set [2] (female Balb/c mice, single oral dose 200 mg/kg, no ABT), the “% AUC Extrap” value is recorded as 0.00%. For the same compound, the concentration at 0.5 h in data set [2] (female, Balb/c, mouse, in vivo, 0.5 h, PO 200 mg/kg + 100 mg/kg ABT, read-out: Drug plasma concentration, Average) was 20100 ng/mL; in data set [2] (female, Balb/c, mouse, in vivo, 0.5 h, PO 200 mg/kg + 100 mg/kg ABT, read-out: Drug plasma concentration, individual mice) it was 19600 ng/mL; in data set [2] (female, Balb/c, mouse, in vivo, po, 200 mg/kg, 0.5 h, PO 200 mg/kg, no ABT, read-out: Drug plasma concentration, Average), 6730 ng/mL; in data set [2] (female, Balb/c, mouse, in vivo, po, 200 mg/kg, 0.5 h, PO 200 mg/kg, no ABT, read-out: Drug plasma concentration, individual mice) it was 7880 ng/mL. Also, the concentration at 2 h in data set [2] (female, Balb/c, mouse, in vivo, 2 h, PO 200 mg/kg + 100 mg/kg ABT, read-out: Drug plasma concentration, Average) is 34600 ng/mL; in data set [2] (female, Balb/c, mouse, in vivo, 2 h, PO 200 mg/kg + 100 mg/kg ABT, read-out: Drug plasma concentration, individual mice), 36400 ng/mL; in data set [2] (female, Balb/c, mouse, in vivo, po, 200 mg/kg, 2 h, PO 200 mg/kg, no ABT, read-out: Drug plasma concentration, Average), 6100 ng/mL; in data set [2] (female, Balb/c, mouse, in vivo, po, 200 mg/kg, 2 h, PO 200 mg/kg, no ABT, read-out: Drug plasma concentration, individual mice), 8580 ng/mL. Also, the concentration at 4 h in data set [2] (female, Balb/c, mouse, in vivo, 4 h, PO 200 mg/kg + 100 mg/kg ABT, read-out: Drug plasma concentration, Average) is 44800 ng/mL; in data set [2] (female, Balb/c, mouse, in vivo, 4 h, PO 200 mg/kg + 100 mg/kg ABT, read-out: Drug plasma concentration, individual mice), 54800 ng/mL; in data set [2] (female, Balb/c, mouse, in vivo, po, 200 mg/kg, 4 h, PO 200 mg/kg, no ABT, read-out: Drug plasma concentration, Average), 600 ng/mL; in data set [2] (female, Balb/c, mouse, in vivo, po, 200 mg/kg, 4 h, PO 200 mg/kg, no ABT, read-out: Drug plasma concentration, individual mice), 861 ng/mL. The “AUC(0-x)/Dose” value in data set [2] (setting [4]) is 78.4 ng·h/mL/mg/kg. Also, in data set [2] (setting [4]), the “AUC(0-∞)/Dose” value amounted to 78.4 ng·h/mL/mg/kg. Besides, the Cmax/Dose in data set [2] (setting [4]) is recorded as 34 ng/mL/mg/kg. Moreover, the concentration at 8 h in data set [2] (female, Balb/c, mouse, in vivo, po, 200 mg/kg, 8 h, PO 200 mg/kg, no ABT, read-out: Drug plasma concentration, Average) came out at 74 ng/mL. The concentration at 12 h in data set [2] (female, Balb/c, mouse, in vivo, po, 200 mg/kg, 12 h, PO 200 mg/kg, no ABT, read-out: Drug plasma concentration, Average) was 34 ng/mL; in data set [2] (female, Balb/c, mouse, in vivo, po, 200 mg/kg, 12 h, PO 200 mg/kg, no ABT, read-out: Drug plasma concentration, individual mice), 40.1 ng/mL. Moreover, the concentration at 24 h in data set [2] (female, Balb/c, mouse, in vivo, po, 200 mg/kg, 24 h, PO 200 mg/kg, no ABT, read-out: Drug plasma concentration, Average) came out at 8 ng/mL; in data set [2] (female, Balb/c, mouse, in vivo, po, 200 mg/kg, 24 h, PO 200 mg/kg, no ABT, read-out: Drug plasma concentration, individual mice) it was 8.09 ng/mL. Also, the maximum concentration (Cmax) in data set [2] (mouse, in vivo, female Balb/c mice, single oral dose 200 mg/kg, ABT 100 mg/kg PO 2 h before, manually added from the TA concentration data) was determined as 44800 ng/mL; in data set [2] (setting [5]) it was 6730 ng/mL. For the same compound, the total exposure AUC(0-inf) in data set [2] (setting [5]) came out at 15700 ng·h/mL. Further, the Tmax in data set [2] (setting [5]) came out at 0.5 h. The same compound showed a half-life in data set [2] (setting [5]) of 1.7 h. Besides, in data set [2] (mouse, in vivo, female Balb/c mice, single oral dose 200 mg/kg, no ABT, read-out: AUC(0-x)), the AUC came to 15700 ng·h/mL. The “cfu reduction with respect to non-treated controls” value in the data set with TB infection (300 mg/kg) and with TB infection (500 mg/kg) was 2 log cfu each time. Besides, the Signs of toxicity result in the data set on TB infection (any of the administered doses) was “No signs of toxicity”.
